# Experimental data as given in patent US10173991B2, “Sulfone amide linked benzothiazole inhibitors of endothelial lipase” (BRISTOL-MYERS SQUIBB COMPANY, priority 2014, dated 2019).
# Biological target: Endothelial lipase (EL) (Homo sapiens (Human), UniProt Q9Y5X9)
# Assay: Endothelial lipase (EL) enzymatic assay with fluorescent substrate A10070 in DMPG vesicles
# Type: biochemical
# Details: not given
# In short: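 EL from conditioned medium of HT-1080 cells engineered to overexpress endogenous EL; HL partially purified from conditioned medium of HL-overexpressing COS cells. Enzyme preincubated with compound 30 min at 37° C in 50 mM HEPES pH 8.0, 50 mM NaCl, 1 mM CaCl2; DMPG vesicles carrying FRET substrate (0.11 mole fraction) then added.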
# Endothelial lipase (EL), sequence (Q9Y5X9 21-500): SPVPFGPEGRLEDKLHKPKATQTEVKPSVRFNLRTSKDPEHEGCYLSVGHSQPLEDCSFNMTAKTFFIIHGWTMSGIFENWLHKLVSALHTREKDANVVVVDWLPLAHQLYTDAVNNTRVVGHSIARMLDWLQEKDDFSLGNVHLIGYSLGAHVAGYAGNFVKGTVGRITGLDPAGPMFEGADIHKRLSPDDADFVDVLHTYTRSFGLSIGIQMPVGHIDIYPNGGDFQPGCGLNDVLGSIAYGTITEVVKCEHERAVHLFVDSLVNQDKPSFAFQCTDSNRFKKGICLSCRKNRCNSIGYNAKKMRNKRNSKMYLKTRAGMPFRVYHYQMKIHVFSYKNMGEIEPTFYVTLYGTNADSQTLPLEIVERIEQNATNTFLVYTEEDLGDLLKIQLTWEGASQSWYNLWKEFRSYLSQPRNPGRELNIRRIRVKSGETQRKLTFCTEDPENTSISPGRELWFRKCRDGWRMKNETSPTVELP
row,IC50 [nM],Compound
1,13,"CS(=O)(=O)C(C(=O)NCC(=O)NC1CC1)c1nc2cc(-c3ccc(F)nc3)ccc2s1 (stereo not shown) [Example 333, N-[(cyclopropyl-carbamoyl)methyl]-2-[5-(6-fluoropyridin-3-yl)-1,3-benzothiazol-2-yl]-2-methanesulfonyl-acetamide]"
2,1,"COCCS(=O)(=O)C(C(=O)NCC(=O)NC1CC1)c1nc2cc(F)c(-c3ccc(NC(=O)CCc4ccccc4)cc3)cc2s1 (stereo not shown) [Example 577, N-{4-[2-({[(cyclopropyl-carbamoyl)methyl]carbamoyl}(2-methoxyethane-sulfonyl)methyl)-5-fluoro-1,3-benzothiazol-6-yl]phenyl}-3-phenyl-propanamide]"
3,1,"O=C(CNC(=O)C(c1nc2cc(F)c(-c3ccc(-c4ccn[nH]4)cc3)cc2s1)S(=O)(=O)CCC(F)(F)F)NC1CC1 (stereo not shown) [Example 144, N-[(cyclopropyl-carbamoyl)methyl]-2-{5-fluoro-6-[4-(1H-pyrazol-5-yl)phenyl]-1,3-benzothiazol-2-yl}-2-(3,3,3-trifluoropropane-sulfonyl) acetamide]"
4,94,"COCCS(=O)(=O)C(C(=O)NCC(=O)NC1CC1)c1nc2ccc(-c3ccnc(F)c3)cc2s1 (stereo not shown) [Example 311, N-[(cyclopropyl-carbamoyl)methyl]-2-[6-(2-fluoropyridin-4-yl)-1,3-benzothiazol-2-yl]-2-(2-methoxyethane-sulfonyl)acetamide]"
5,8,"COCCS(=O)(=O)C(C(=O)NCC(=O)NC1CC1)c1nc2cc(F)c(-c3ccc(-c4noc(=O)[nH]4)cc3)cc2s1 (stereo not shown) [Example 286, N-[(cyclopropyl-carbamoyl)methyl]-2-{5-fluoro-6-[4-(5-oxo-4,5-dihydro-1,2,4-oxadiazol-3-yl)phenyl]-1,3-benzothiazol-2-yl}-2-(2-methoxyethane-sulfonyl)acetamide]"
6,16,"COCCS(=O)(=O)C(C(=O)NCC(=O)NC1CC1)c1nc2cc(C(F)(F)F)c(-c3ccnn3C)cc2s1 (stereo not shown) [Example 162, N-[(cyclopropyl-carbamoyl)methyl]-2-(2-methoxyethane-sulfonyl)-2-[6-(1-methyl-1H-pyrazol-5-yl)-5-(trifluoromethyl)-1,3-benzothiazol-2-yl]acetamide]"
7,12,"CS(=O)(=O)C(C(=O)NCC(=O)NC1CC1)c1nc2ccc(-c3ccc(-n4ccnc4)cc3)cc2s1 (stereo not shown) [Example 580, N-[(cyclopropyl-carbamoyl)methyl]-2-{6-[4-(1H-imidazol-1-yl)phenyl]-1,3-benzothiazol-2-yl}-2-methanesulfonyl-acetamide]"
8,9,"O=C(CNC(=O)C(c1nc2ccc(-c3ccc4c(c3)CNC4=O)cc2s1)S(=O)(=O)c1ccc(F)cc1)NC1CC1 (stereo not shown) [Example 447, N-[(cyclopropyl-carbamoyl)methyl]-2-(4-fluorobenzene-sulfonyl)-2-[6-(1-oxo-2,3-dihydro-1H-isoindol-5-yl)-1,3-benzothiazol-2-yl}acetamide]"
9,5,"COC1(C)CN(C(=O)c2ccc(-c3ccc4nc(C(C(=O)NCC(=O)NC5CC5)S(=O)(=O)c5ccccc5)sc4c3)cc2)C1 (stereo not shown) [Example 401, 2-(benzenesulfonyl)-N-[(cyclopropyl-carbamoyl)methyl]-2-{6-[4-(3-methoxy-3-methylazetidine-1-carbonyl)phenyl]-1,3-benzothiazol-2-yl}acetamide]"
10,15,"O=C(CNC(=O)C(c1nc2cc(F)c(-c3ccc(NC(=O)OCc4ccccc4)nc3)cc2s1)S(=O)(=O)C1CC1)NC1CC1 (stereo not shown) [Example 556, benzyl N-(5-{2-[(cyclopropane-sulfonyl) ({[(cyclopropyl-carbamoyl)methyl]carbamoyl)methyl]-5-fluoro-1,3-benzothiazol-6-yl}pyridin-2-yl) carbamate]"
11,4,"CC(C)(O)CNC(=O)c1ccc(-c2ccc3nc(C(C(=O)NCC(=O)NC4CC4)S(C)(=O)=O)sc3c2)cc1 (stereo not shown) [Example 567, 4-[2-({[(cyclopropyl-carbamoyl)methyl]carbamoyl} (methanesulfonyl)methyl)-1,3-benzothiazol-6-yl]-N-(2-hydroxy-2-methylpropyl) benzamide]"
12,34,"Cc1ncc(-c2cc3sc(C(C(=O)NCC(=O)NC4CC4)S(C)(=O)=O)nc3cc2F)cn1 (stereo not shown) [Example 194, N-[(cyclopropyl-carbamoyl)methyl]-2-[5-fluoro-6-(2-methylpyrimidin-5-yl)-1,3-benzothiazol-2-yl]-2-methanesulfonyl-acetamide]"
13,4,"COCCS(=O)(=O)C(C(=O)NCC(=O)NC1CC1)c1nc2ccc(-c3ccc(C(=O)NCC(F)(F)F)cc3)cc2s1 (stereo not shown) [Example 97, 4-[2-({[(cyclopropyl-carbamoyl)methyl]carbamoyl}(2-methoxyethane-sulfonyl)methyl)-1,3-benzothiazol-6-yl]-N-(2,2,2-trifluoroethyl) benzamide]"
14,15,"CN(C)S(=O)(=O)C(C(=O)NCC(=O)NC1CC1)c1nc2cc(F)c(-c3ccc(-c4ccccn4)cc3)cc2s1 (stereo not shown) [Example 508, N-[(cyclopropyl-carbamoyl)methyl]-2-(dimethyl-sulfamoyl)-2-{5-fluoro-6-[4-(pyridin-2-yl)phenyl]-1,3-benzothiazol-2-yl}acetamide]"
15,5,"COCCS(=O)(=O)C(C(=O)NCC(=O)NC1CC1)c1nc2cc(F)c(-c3ccc4c(c3)C(=O)NC4)cc2s1 (stereo not shown) [Example 154, N-[(cyclopropyl-carbamoyl)methyl]-2-[5-fluoro-6-(3-oxo-2,3-dihydro-1H-isoindol-5-yl)-1,3-benzothiazol-2-yl]-2-(2-methoxyethane-sulfonyl) acetamide]"
16,10,"O=C(CNC(=O)C(c1nc2ccc(-c3ccc(C(=O)N4CCOCC4)cc3)cc2s1)S(=O)(=O)c1ccc(F)cc1)NC1CC1 (stereo not shown) [Example 448, N-[(cyclopropyl-carbamoyl)methyl]-2-(4-fluorobenzene-sulfonyl)-2-{6-[4-(morpholine-4-carbonyl)phenyl]-1,3-benzothiazol-2-yl}acetamide]"
17,15,"Cc1cc(F)ncc1-c1cc2sc(C(C(=O)NCC(=O)NC3CC3)S(C)(=O)=O)nc2cc1F (stereo not shown) [Example 319, N-[(cyclopropyl-carbamoyl)methyl]-2-[5-fluoro-6-(6-fluoro-4-methylpyridin-3-yl)-1,3-benzothiazol-2-yl]-2-methanesulfonyl-acetamide]"
18,253,"O=C(CNC(=O)C(c1nc2ccc(-c3ccc(F)nc3)cc2s1)S(=O)(=O)Cc1ccccc1F)NC1CC1 (stereo not shown) [Example 18, N-[(cyclopropyl-carbamoyl)methyl]-2-[(2-fluorophenyl)methanesulfonyl]-2-[6-(6-fluoropyridin-3-yl)-1,3-benzothiazol-2-yl]acetamide]"
19,16,"COCCS(=O)(=O)C(C(=O)NCC(=O)NC1CC1)c1nc2cc(C)c(-c3cnc(C4CC4)nc3)cc2s1 (stereo not shown) [Example 163, N-[(cyclopropyl-carbamoyl)methyl]-2-[6-(2-cyclopropyl-pyrimidin-5-yl)-5-methyl-1,3-benzothiazol-2-yl]-2-(2-methoxyethane-sulfonyl) acetamide]"
20,9,"COC(=O)Nc1cccc(-c2ccc3nc(C(C(=O)NCC(=O)NC4CC4)S(=O)(=O)Cc4cccc(C#N)c4)sc3c2)c1 (stereo not shown) [Example 278, methyl N-(3-{2-[(3-cyanophenyl)methanesulfonyl ({[(cyclopropyl-carbamoyl)methyl]carbamoyl})methyl]-1,3-benzothiazol-6-yl}phenyl)carbamate]"
21,32,"COCCS(=O)(=O)C(C(=O)NCC(=O)NC1CC1)c1nc2cc(C(F)(F)F)c(-c3ccc(F)nc3)cc2s1 (stereo not shown) [Example 173, N-[(cyclopropyl-carbamoyl)methyl]-2-[6-(6-fluoropyridin-3-yl)-5-(trifluoromethyl)-1,3-benzothiazol-2-yl]-2-(2-methoxyethane-sulfonyl) acetamide]"
22,48,"COCCS(=O)(=O)C(C(=O)NCC(=O)NC1CC1)c1nc2ccc(-c3ccc(C(=O)O)cc3)cc2s1 (stereo not shown) [Example 408, 4-[2-({[(cyclopropyl-carbamoyl)methyl]carbamoyl}(2-methoxyethane-sulfonyl)methyl)-1,3-benzothiazol-6-yl]benzoic acid]"
23,54,"CC(=O)N(C)c1ccc(-c2ccc3nc(C(C(=O)NCC(=O)NC4CC4)S(=O)(=O)CCC(F)(F)F)sc3c2)cc1 (stereo not shown) [Example 28, N-[(cyclopropyl-carbamoyl)methyl]-2-{6-[4-(N-methylacetamido)phenyl]-1,3-benzothiazol-2-yl}-2-(3,3,3-trifluoropropane-sulfonyl) acetamide]"
24,4,"COCCS(=O)(=O)C(C(=O)NCC(=O)NC1CC1)c1nc2ccc(-c3ccc(C(=O)NCC(C)(C)OC)cc3)cc2s1 (stereo not shown) [Example 566, 4-[2-({[(cyclopropyl-carbamoyl)methyl]carbamoyl}(2-methoxyethane-sulfonyl)methyl)-1,3-benzothiazol-6-yl]-N-(2-methoxy-2-methylpropyl) benzamide]"
25,117,"O=C(CNC(=O)C(c1nc2ccc(-c3cncnc3)cc2s1)S(=O)(=O)Cc1ccc(F)cc1)NC1CC1 (stereo not shown) [Example 517, N-[(cyclopropyl-carbamoyl)methyl]-2-[(4-fluorophenyl)methanesulfonyl]-2-[6-(pyrimidin-5-yl)-1,3-benzothiazol-2-yl]acetamide]"
26,19,"CS(=O)(=O)C(C(=O)NCC(=O)NC1CC1)c1nc2cc(F)c(-c3cccc(C(N)=O)c3)cc2s1 (stereo not shown) [Example 327, 3-[2-({[(cyclopropyl-carbamoyl)methyl]carbamoyl} (methanesulfonyl)methyl)-5-fluoro-1,3-benzothiazol-6-yl]benzamide]"
27,59,"O=C(CNC(=O)C(c1nc2cc(F)c(-c3cncnc3)cc2s1)S(=O)(=O)c1ccc(F)c(F)c1)NC1CC1 (stereo not shown) [Example 445, N-[(cyclopropyl-carbamoyl)methyl]-2-(3,4-difluorobenzene-sulfonyl)-2-[5-fluoro-6-(pyrimidin-5-yl)-1,3-benzothiazol-2-yl]acetamide]"

# Same assay, conditions: EL from conditioned media of HT-1080 cells; 30 min preincubation at 37° C.
row,IC50 [nM],Compound
1,22,"O=C(CNC(=O)C(c1nc2cc(F)c(-c3ccc(F)nc3)cc2s1)S(=O)(=O)CCN1CCOCC1)NC1CC1 (stereo not shown) [Example 421, N-[(Cyclopropylcarbamoyl)methyl]-2-[5-fluoro-6-(6-fluoropyridin-3-yl)-1,3-benzothiazol-2-yl]-2-[2-(morpholin-4-yl)ethanesulfonyl]acetamide]"
